Counter-ions that a name gives are not always drawn. Like-named read-outs stand apart in the source and are kept apart here. A value given as a limit tells only on which side of the number the result lay.

One experiment concerns the target human Y4/PP1 receptor (Homo sapiens, UniProt P50391). Briefly: Human Y4/PP1 receptor binding assay ([125I]human PP, membrane protein). Put shortly:
(§1)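 Filtration binding with membrane protein and drug dilution, 2 h at room temperature with mixing, radioactivity counted by gamma or scintillation. Y2: 25 pM [125I]PYY in Krebs-Ringer bicarbonate pH 7.4 with 0.01% BSA, nonspecific by 1 μM NPY. Y4/PP1: 50 pM [125I]hPP in HEPES-buffered saline pH 7.4 with protease inhibitors and 0.3% BSA, nonspecific by 1 μM hPP.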

A further experiment has as its target T1, Human NPY1 receptor (Homo sapiens, UniProt P25929).
T1 construct: host or cells: SK-N-MC cells
T1 sequence (P25929 1-384): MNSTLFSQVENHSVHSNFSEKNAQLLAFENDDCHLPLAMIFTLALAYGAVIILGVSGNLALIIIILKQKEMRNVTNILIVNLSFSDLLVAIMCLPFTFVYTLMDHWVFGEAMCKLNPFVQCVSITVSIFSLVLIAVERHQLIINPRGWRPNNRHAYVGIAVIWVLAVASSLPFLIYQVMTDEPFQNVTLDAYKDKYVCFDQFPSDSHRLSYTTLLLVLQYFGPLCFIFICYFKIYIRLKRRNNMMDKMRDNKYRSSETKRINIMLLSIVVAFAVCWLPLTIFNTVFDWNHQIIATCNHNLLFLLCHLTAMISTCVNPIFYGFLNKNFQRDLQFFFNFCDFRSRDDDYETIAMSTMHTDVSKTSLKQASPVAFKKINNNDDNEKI
Briefly: Human NPY1 receptor binding assay ([125I]PYY, SK-N-MC cells). The essentials: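 Confluent SK-N-MC cells preincubated 30 min at room temperature in serum-free DMEM/25 mM HEPES pH 7.3 with BSA, bacitracin and PMSF, then incubated 3 h at room temperature with compound and ~50 pM [125I]PYY. Nonspecific binding defined with 1 μM NPY; bound radioactivity counted after Triton X-100 lysis.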

The target in the next experiment is T2, Human NPY5 receptor (Homo sapiens, UniProt Q15761).
T2 sequence (Q15761 1-445): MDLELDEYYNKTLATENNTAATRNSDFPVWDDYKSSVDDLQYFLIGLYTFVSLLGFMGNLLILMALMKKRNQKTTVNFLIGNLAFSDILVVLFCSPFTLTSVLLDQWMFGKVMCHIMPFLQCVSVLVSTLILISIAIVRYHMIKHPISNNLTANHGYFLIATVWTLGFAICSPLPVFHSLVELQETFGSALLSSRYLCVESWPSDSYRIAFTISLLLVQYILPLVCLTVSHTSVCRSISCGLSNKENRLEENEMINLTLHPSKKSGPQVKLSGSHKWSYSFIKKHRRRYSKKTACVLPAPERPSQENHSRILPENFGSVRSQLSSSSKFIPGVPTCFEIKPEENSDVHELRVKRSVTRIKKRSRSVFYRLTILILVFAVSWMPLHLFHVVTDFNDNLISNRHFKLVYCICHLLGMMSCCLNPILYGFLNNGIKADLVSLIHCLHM
As to the kind of experiment: Human NPY5 receptor binding assay ([125I]PYY, membrane protein). The essentials: (§2)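 Membrane protein was incubated with 75-100 pM porcine [125I]PYY and test compound for 2 hours at room temperature with constant mixing in pH 7.4 Tris buffer containing NaCl, KCl, CaCl2, MgSO4, 0.1% BSA and bacitracin. Nonspecific binding was defined with 1 μM PYY. Bound radioactivity was counted after filtration.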

Experiment [1] has as its target T3, Rat NPY5 receptor (Rattus norvegicus, UniProt Q63634).
T3 sequence (Q63634 1-445): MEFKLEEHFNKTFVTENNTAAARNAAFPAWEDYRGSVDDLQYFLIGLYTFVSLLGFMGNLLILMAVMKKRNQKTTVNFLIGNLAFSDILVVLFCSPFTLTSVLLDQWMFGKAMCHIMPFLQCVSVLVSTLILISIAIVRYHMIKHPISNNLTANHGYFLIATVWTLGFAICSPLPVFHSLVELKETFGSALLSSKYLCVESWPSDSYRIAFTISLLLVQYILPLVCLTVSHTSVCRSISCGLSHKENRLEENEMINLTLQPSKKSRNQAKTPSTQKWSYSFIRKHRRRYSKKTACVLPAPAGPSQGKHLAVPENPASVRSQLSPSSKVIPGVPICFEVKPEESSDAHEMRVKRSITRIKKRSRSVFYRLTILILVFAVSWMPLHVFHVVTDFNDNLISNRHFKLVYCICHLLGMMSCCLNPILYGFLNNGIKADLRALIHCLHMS
As to the kind of experiment: Rat NPY5 receptor binding assay ([125I]PYY, membrane protein). Put shortly: as §2

Experiment [2] has as its target T3, Rat NPY5 receptor. As to the kind of experiment: Rat NPY5 cyclase assay (in vitro functional assay, forskolin-stimulated adenylate cyclase, cAMP). The experiment is classed as cell-based. The following applies: 20 min, percentage of forskolin-stimulated adenylate cyclase, read-out: rNPY5 % FSAC (10 μM). The method, then: D. Rat NYP5 Cyclase Assay (In Vitro Functional Assay)
Cells stably expressing the rat NPY5 receptor are resuspended in serum-free DMEM containing 10 mM HEPES (pH 7.4) and 1 mM isobutylmethylxanthine (IBMX). […] forskolin and drug dilution are then added to the cells. After a 20 minute incubation of the samples at 37° C, the assay is stopped by placing the samples in boiling water for 3 minutes. The cAMP produced in each sample is quantitated with a radioimmunoassay kit (NEN DuPont). Data are expressed as a percentage of forskolin-stimulated adenylate cyclase.

The target of a further experiment is T4, Y2 receptor (Homo sapiens, UniProt P49146).
T4 sequence (P49146 1-381): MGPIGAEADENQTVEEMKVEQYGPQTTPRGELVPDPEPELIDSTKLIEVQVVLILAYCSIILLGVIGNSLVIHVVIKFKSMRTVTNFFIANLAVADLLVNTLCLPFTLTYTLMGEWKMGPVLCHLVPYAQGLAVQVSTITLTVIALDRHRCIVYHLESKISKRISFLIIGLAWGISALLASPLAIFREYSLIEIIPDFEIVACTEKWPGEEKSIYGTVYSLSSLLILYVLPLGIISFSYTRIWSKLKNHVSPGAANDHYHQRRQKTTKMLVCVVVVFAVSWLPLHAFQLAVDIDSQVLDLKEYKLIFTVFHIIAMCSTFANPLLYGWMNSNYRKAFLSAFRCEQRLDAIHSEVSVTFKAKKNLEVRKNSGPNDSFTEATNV
Briefly: Y2 receptor binding assay ([125I]PYY, membrane protein). The following applies: membrane protein, read-out: hNPY2 IC50. The essentials:
as §1

The mark [3] stands for this setting: [125I]human PP, membrane protein, read-out: hNPY4 IC50.
The mark [4] stands for this setting: [125I]PYY, SK-N-MC cells, read-out: hNPYI IC50.
[5] abbreviates: [125I]PYY, read-out: hNPY5 IC50.
Setting [6] is: [125I]PYY, read-out: rNPY5 IC50.

human Y4/PP1 receptor, sequence (P50391 whole entry): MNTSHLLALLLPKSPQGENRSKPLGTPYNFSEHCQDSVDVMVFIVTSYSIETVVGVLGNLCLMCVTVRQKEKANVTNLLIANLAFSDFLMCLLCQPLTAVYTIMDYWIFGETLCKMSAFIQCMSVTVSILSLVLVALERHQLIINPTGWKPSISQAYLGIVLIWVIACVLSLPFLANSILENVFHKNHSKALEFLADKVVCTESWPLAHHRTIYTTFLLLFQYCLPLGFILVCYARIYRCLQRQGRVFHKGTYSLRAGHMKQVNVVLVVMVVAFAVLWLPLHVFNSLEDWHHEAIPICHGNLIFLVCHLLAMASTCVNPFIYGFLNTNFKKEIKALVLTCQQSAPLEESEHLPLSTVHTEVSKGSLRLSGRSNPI

What is called IC50 is the concentration needed to halve the response being measured. `O=C(CN1CCC(n2c(=O)[nH]c3ccccc32)CC1)Nc1ccc(Oc2ccccc2)cc1` [Compound 352, 2-[4-(2-Oxo-2,3-dihydro-benzoimidazol-1-yl)-piperidin-1-yl]-N-(4-phenoxy-phenyl)-acetamide, reference compound]: the IC50 was > 5000 nM at human Y4/PP1 receptor (setting [3]); > 5000 nM on Human NPY1 receptor (setting [4]); 53 nM on Human NPY5 receptor (setting [5]); 62.8 nM at Rat NPY5 receptor [1] (setting [6]); > 5000 nM at Y2 receptor ([125I]PYY). Besides, at Rat NPY5 receptor [2] (10 μM), the activity at 10 µM is 90%.
Consider `O=C(CN1CCCC1C(O)(c1ccccc1)c1ccccc1)Nc1ccc(C2CCCCC2)cc1` (stereo not shown) [Compound 296, N-(4-Cyclohexyl-phenyl)-2-[2-(hydroxy-diphenyl-methyl)-pyrrolidin-1-yl]-acetamide; compound with oxalic acid], for which the IC50 was > 5000 nM at human Y4/PP1 receptor (setting [3]); > 5000 nM on Human NPY1 receptor (setting [4]); 48 nM on Human NPY5 receptor (setting [5]); 43 nM on Rat NPY5 receptor [1] (setting [6]); > 5000 nM on Y2 receptor ([125I]PYY). Besides, the activity at 10 µM at Rat NPY5 receptor [2] (10 μM) was determined as 98%.
Consider `CNC1(C(N)=O)CCN(CC(=O)Nc2ccc(C3CCCCC3)cc2)CC1` [Compound 30, 1-[(4-Cyclohexyl-phenylcarbamoyl)-methyl]-4-methylamino-piperidin-4-carboxylic acid amide], for which the IC50 was 60 nM at Human NPY5 receptor ([125I]PYY binding, read-out: hNPY5 IC50); 13 nM on Rat NPY5 receptor [1] ([125I]PYY binding, read-out: rNPY5 IC50); > 5000 nM at Y2 receptor ([125I]PYY binding). In addition, on Rat NPY5 receptor [2] (compound at 10 μM), the activity at 10 µM is 107%.
On to `CCCOC1(c2ccccc2)CCN(CC(=O)Nc2ccc(C3CCCCC3)cc2)CC1` [Compound 294, N-(4-Cyclohexyl-phenyl)-2-(4-phenyl-4-propoxy-piperidin-1-yl)-acetamide; hydrochloride], for which the IC50 on human Y4/PP1 receptor (setting [3]) was > 5000 nM; at Human NPY1 receptor (setting [4]) it was > 5000 nM; on Human NPY5 receptor (hNPY5 IC50, [125I]PYY) it was 51 nM; on Rat NPY5 receptor [1] (rNPY5 IC50, [125I]PYY), 50 nM; at Y2 receptor ([125I]PYY), > 5000 nM. Also, the activity at 10 µM on Rat NPY5 receptor [2] (10 μM) amounted to 101%.
Consider `O=C(CN1CCC(n2c(=O)[nH]c3ccccc32)CC1)Nc1ccc([N+](=O)[O-])c(Cl)c1` [Compound 357, N-(3-Chloro-4-nitro-phenyl)-2-[4-(2-oxo-2,3-dihydro-benzoimidazol-1-yl)-piperidin-1-yl]-acetamide, reference compound], for which the IC50 on human Y4/PP1 receptor (setting [3]) was > 5000 nM; at Human NPY1 receptor (setting [4]), > 5000 nM; on Human NPY5 receptor (setting [5]), 239 nM; on Rat NPY5 receptor [1] (setting [6]), 229 nM; at Y2 receptor ([125I]PYY) it was > 5000 nM. The activity at 10 µM at Rat NPY5 receptor [2] (10 μM) was determined as 112%.
For `O=C(CN1CCC(n2c(=O)[nH]c3ccccc32)CC1)Nc1ccc(N=Nc2ccccc2)cc1` [Compound 349, 2-[4-(2-Oxo-2,3-dihydro-benzoimidazol-1-yl)-piperidin-1-yl]-N-(4-phenylazo-phenyl)-acetamide, reference compound], the IC50 on human Y4/PP1 receptor (setting [3]) was > 5000 nM; at Human NPY1 receptor (setting [4]), > 5000 nM; at Human NPY5 receptor (setting [5]), 138 nM; on Rat NPY5 receptor [1] (setting [6]), 165 nM; at Y2 receptor ([125I]PYY) it was > 5000 nM. Besides, the activity at 10 µM at Rat NPY5 receptor [2] (10 μM) was determined as 100%.
For the molecule `N#CC1(c2ccccc2)CCN(CC(=O)Nc2ccc(C3CCCCC3)cc2)CC1` [Compound 295, 2-(4-Cyano-4-phenyl-piperidin-1-yl)-N-(4-cyclohexyl-phenyl)-acetamide; hydrochloride], the IC50 on human Y4/PP1 receptor was > 5000 nM; at Human NPY1 receptor it was > 5000 nM; at Human NPY5 receptor (setting [5]), 4.7 nM; on Rat NPY5 receptor [1] (rNPY5 IC50, [125I]PYY), 4.5 nM; on Y2 receptor ([125I]PYY), > 5000 nM. In addition, the activity at 10 µM at Rat NPY5 receptor [2] (10 μM) was 101%.
`Cc1ccc(OC(=O)c2ccc(NC(=O)CN3CCC(n4c(=O)[nH]c5ccccc54)CC3)cc2)cc1` [Compound 264, 4-{2-[4-(2-Oxo-2,3-dihydro-benzoimidazol-1-yl)-piperidin-1-yl]-acetylamino}-benzoic acid P-tolyl ester; hydrochloride]: the IC50 on human Y4/PP1 receptor (setting [3]) was > 5000 nM; at Human NPY5 receptor (setting [5]) it was 180 nM; at Rat NPY5 receptor [1] (setting [6]) it was 100 nM; on Y2 receptor ([125I]PYY), > 5000 nM. For the same molecule, the activity at 10 µM on Rat NPY5 receptor [2] (10 μM) worked out at 139%.
In the case of `O=C(CN1CCC(n2c(=O)[nH]c3ccccc32)CC1)Nc1ccc(C(F)(F)F)cc1` [Compound 356, 2-[4-(2-Oxo-2,3-dihydro-benzoimidazol-1-yl)-piperidin-1-yl]-N-(4-trifluoromethyl-phenyl)-acetamide, reference compound], the IC50 at human Y4/PP1 receptor (setting [3]) was > 5000 nM; on Human NPY1 receptor (setting [4]), > 5000 nM; at Human NPY5 receptor (setting [5]), 259 nM; on Rat NPY5 receptor [1] (setting [6]) it was 271 nM; at Y2 receptor ([125I]PYY), > 5000 nM. For the same molecule, the activity at 10 µM at Rat NPY5 receptor [2] (10 μM) turned out to be 105%.
Consider `O=C(CN1CCC(O)(Cc2ccccc2)CC1)Nc1ccc(C2CCCCC2)cc1` [Compound 314, 2-(4-Benzyl-4-hydroxy-piperidin-1-yl)-N-(4-cyclohexyl-phenyl)-acetamide; hydrochloride], for which the IC50 at human Y4/PP1 receptor (setting [3]) was > 5000 nM; on Human NPY1 receptor (setting [4]), > 5000 nM; on Human NPY5 receptor (setting [5]), 130 nM; at Rat NPY5 receptor [1] (setting [6]), 100 nM; on Y2 receptor ([125I]PYY), > 5000 nM. The activity at 10 µM on Rat NPY5 receptor [2] (10 μM) was 110%.
As to `O=C(CN1CCC(O)(c2ccccc2)CC1)Nc1ccc(C2CCCCC2)cc1` [Compound 26, N-(4-Cyclohexyl-phenyl)-2-(4-hydroxy-4-phenyl-piperidin-1-yl)-acetamide], the IC50 on Human NPY5 receptor (hNPY5 IC50, [125I]PYY binding) is 93 nM; on Rat NPY5 receptor [1] (rNPY5 IC50, [125I]PYY binding), 37 nM; on Y2 receptor ([125I]PYY binding), > 5000 nM. Also, the activity at 10 µM at Rat NPY5 receptor [2] (compound at 10 μM) came to 111%.

The values above are taken from patent publication US6410792B1, “Amide derivatives and methods for using the same as selective neuropeptide Y receptor antagonists” (Bayer Corporation, priority 1997, dated 2002).
